The nature of data set [1]: Stability assay in liver microsome in vitro. The class given is in vitro ADME, Mouse. As to the method:
IV. Stability Assay in Liver Microsome In Vitro
To evaluate the metabolic stability of the compounds of the present invention in liver microsome in vitro.
Formulation of the working solution of the compound: 2 μL of the stock solution of the compound was added to 998 μL of phosphate buffer, and the final concentration was 20 μM.
Formulation of the working solution of the control compound (7-hydroxycoumarin): The formulation was consistent with that of the compound. • 3.2. Formulation of the working solution of liver microsome
78.1 μL of 20 mg/mL microsome was diluted to 2.5 mL with 100 mM phosphate buffer and mixed well, and the final concentration was 0.625 mg/mL. • 3.3. Formulation of NADPH and UDPGA
33.3 mg of NADPH and 25.8 mg of UDPGA were weighed respectively, followed by the addition of 2 mL of 100 mM phosphate buffer. The final concentrations were 20 mM. • 3.4. Formulation of the channel-forming reagent (Alamethicin)
1 mg of Alamethicin was weighed, to which 200 μL of DMSO was added to obtain a 5 mg/mL solution. 10 μL of this solution was added to 990 μL of phosphate buffer (pH 7.4), and the final concentration was 50 μg/mL. • 3.5. Formulation of the reaction stop solution
Stop solution: Cold acetonitrile containing 100 ng/mL labetalol hydrochloride and 400 ng/mL tolbutamide was used as internal standards, and stored in a refrigerator at 2 to 8° C. • 3.6. Incubation procedure
400 μL of the formulated liver microsome, 25 μL of the working solution of the compound […] and 25 μL of Alamethicin (50 μg/mL) were added to a 96-well plate successively, which was then pre-incubated at 37° C. for 10 min. 50 μL of the formulated NADPH/UDPGA was added to initiate the reaction, and the plate was incubated at 37° C. The total volume of the reaction system was 500 μL. The final contents of the components were as follows:
[…] The resulting sample was centrifuged at 4000 g for 10 min, and the supernatant was collected for LC-MS/MS analysis.

Another data set addresses D3 receptor (Homo sapiens (Human), UniProt P35462). The experiment in a line: Effect on cAMP content in cells stably expressing D3 receptors (CHO-D3). The settings on record: forskolin stimulated, activation. The class given is cell-based. As to the method: To determine the activation effect of the compounds on D3 receptor.
3. The experimental buffer (1*HBSS, 0.1% BSA, 20 mM HEPES and 500 μM IBMX) was prepared. The compound was diluted with the buffer. 2.5 μL of the compound solution was added to each well, and the plate was incubated at 37° C. for 10 minutes. The forskolin was diluted to 8 μM (8*) with the experimental buffer. […] The reaction plate was centrifuged at 200 g for 30 s at room temperature, and left to stand at 25° C. for 1 h. Data was collected using Envision.

The next data set concerns SD rats. The experiment in a line: Toxicity test by repeated intragastric administration for 14 days in SD rats (with toxicokinetics). The class given is in vivo, Sprague-Dawley (SD) rats. From the text:
(§1) VI. Toxicity Test by Repeated Intragastric Administration for 14 Days in SD Rats
(§2) The objective of this study was to investigate the possible toxicity of compounds after repeated intragastric administration to SD rats for 14 days. • 6.2 Experimental materials and instruments: • 6.2.1 Test compound
(§3) Test compound 1: the compound of Example 42. • 6.2.2 Vehicle:
(§4) Name: 0.5% CMC-Na (1% tween80) aqueous solution • 6.2.3 Animal information:
(§5) Species & strain: Sprague-Dawley (SD) rats
(§6) […] were divided into […] according to their sex and body weight. 40 rats were used for toxicology study (groups 1 to 4, 5 rats/sex/group), and 24 rats were used for toxicokinetics study (groups 5 to 8, 3 rats/sex/group). The animals in groups 1 and 5 were intragastrically administered with 0.5% CMC-Na (1% tween80) aqueous solution as the vehicle control groups. The animals in groups 2 and 6, 3 and 7, 4 and 8 were intragastrically administered with the compound of Example 42 at a dose of 2, 10 and 30 mg/kg, respectively. The animals were administered once a day for 14 consecutive days. The administration volumes were 10 mL/kg. During the experiment, clinical observation, body weight, food intake, body temperature, clinicopathological indicators (blood cell count, coagulation function, blood biochemistry) and toxicokinetics were monitored. All animals were euthanized on D15. During the experiment, the animals in groups 1 to 4 were subjected to gross anatomical observation. Histopathological examination was carried out on abnormal tissue and brain, kidney, adrenal gland, lung and bronchi, prostate, testis and epididymis. • 6.4 List of test data • 6.4.1 Dying/death

Assay in data set [2]: as above
The settings on record: both sexes, Sprague-Dawley, rat, in vivo, po; SD rats, intragastric once a day for two weeks; read-out: Maximum tolerated dose (MTD). The class given is in vivo, Sprague-Dawley (SD) rats.
From the text: as §1, §2, §3, §4, §5, §6

The next data set deals with Rats F344. Nature of the data set: Pharmacodynamic model of active escape experiment in rats. The format is in vivo. The settings on record: oral, dose 1 mg/kg, one hour before the test. The procedure: V. Pharmacodynamic Model of Active Escape Experiment in Rats
To evaluate the anti-schizophrenic effect of the compounds using the pharmacodynamic model of the active escape experiment in rats.
4. Formulation of the Vehicle and Compounds: • 4.1 Vehicle (0.5% CMC-Na+1% Tween80)
A certain mass (such as 1.0 g) of CMC-Na was weighed into a glass bottle, a certain volume (such as 200 mL) of purified water was added, and the resulting mixture was stirred to disperse evenly. 1% (v/v) Tween 80 was added according to the solution volume, and the resulting mixture was stirred overnight to obtain a homogeneous clear solution, which was stored at 2 to 8° C. for later use. • 4.2 Formulation of the compounds: […]
A formula amount of the compound was weighed, followed by the addition of a formula volume of 0.5% CMC-Na+1% Tween 80 solution. The compound solution was formulated before the administration, stored at 2 to 8° C., and used within 4 days.
The day before the compound screening test, a baseline test was performed. The test procedure was the same as 5.1.1 to 5.1.3, and the number of the baseline test was 20. The animals whose number of avoids reached 16 (80%) were grouped according to the number of avoids, 10 animals per group. The first group was administered with the vehicle orally, and the other groups were administered with the corresponding test compounds according to the experimental design. • 5.3 Compound screening test
The compound was administered orally (5 mL/kg) one hour before the test;
The test procedure was the same as 5.1.1 to 5.1.4, and the number of the test was 20.
The following data was collected by the software for data analysis: • Number of avoids of the animal; • Number of escape failures of the animal; • Escape latency of the animal;
All measurement data were expressed as mean±standard error (Mean±SEM), and analyzed by Graphpad 6 statistical software. The difference was considered to be significant when p<0.05.

[3] abbreviates: SD rats, 2, 10 or 30 mg/kg, two weeks.

Each structure is given as a SMILES string.

Sequence of D3 receptor (P35462 whole entry): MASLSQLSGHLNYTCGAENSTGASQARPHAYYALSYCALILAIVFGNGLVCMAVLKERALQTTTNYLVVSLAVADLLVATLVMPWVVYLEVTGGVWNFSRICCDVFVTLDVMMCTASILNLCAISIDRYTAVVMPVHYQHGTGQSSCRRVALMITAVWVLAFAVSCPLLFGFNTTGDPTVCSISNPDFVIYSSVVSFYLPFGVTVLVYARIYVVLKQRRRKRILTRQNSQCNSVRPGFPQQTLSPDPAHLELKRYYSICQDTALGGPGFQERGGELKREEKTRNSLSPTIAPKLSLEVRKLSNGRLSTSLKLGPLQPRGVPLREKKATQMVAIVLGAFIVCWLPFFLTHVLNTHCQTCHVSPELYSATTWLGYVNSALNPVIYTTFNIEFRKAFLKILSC

Regarding `CC(C)(O)C(=O)N[C@H]1CC[C@H](CCN2CCN(c3cccc4sccc34)CC2)CC1` [Example 41, N-(Trans-4-(2-(4-(benzo[b]thiophen-4-yl)piperazin-1-yl)ethyl)cyclohexyl)-2-hydroxy-2-methylpropanamide], in data set [1] (CD-1, liver microsomes, pH 7.4, Mouse liver microsome 0.5 mg/mL, compound 1 μM, NADPH/UDPGA, read-out: Half life (t1/2)), the half-life at 1 μM amounted to 2.72 h. The microsomal CLint at 1 μM in data set [1] (CD-1, liver microsomes, pH 7.4, Mouse liver microsome, note: Slow <8.8, Rapid >48.0, read-out: Intrinsic clearance rate (CLint)) amounted to 21.3 µL/min/mg. For the same compound, in data set [1] (Mouse liver microsome, 120 min), the “Remaining (%, 120 min)” value came to 80.6%.
With `O=C(N[C@H]1CC[C@H](CCN2CCN(c3cccc4sccc34)CC2)CC1)C1(O)CC1` [Example 42, N-(Trans-4-(2-(4-(benzo[b]thiophen-4-yl)piperazin-1-yl)ethyl)cyclohexyl)-1-hydroxycyclopropane-1-carboxamide], the response on D3 receptor was half-maximal at 1.1 nM (EC50). In addition, in the data set on SD rats (setting [3]), the “Main target organs for toxicity” value is “the lungs and adrenal glands”; the “Main toxic responses: blood counts” value was “WBC, Lymph, Retic and PLT are decreased”; the “Main toxic responses: body weight, food intake and body temperature” value was “body weight, food intake and body temperature are decreased”; the “Main toxic responses: coagulation function” value was “FIB wis decreased, and APTT is shortened”. Further, the Accumulation result in the data set on SD rats (SD rats, 14 days intragastric, 2, 10 or 30 mg/kg) is reported as “no accumulation”. In addition, the “Average exposure versus dose” value in the data set with SD rats (SD rats, female and male, D1 and D14) is listed as “increased with the increase of the dose”. Further, the maximum tolerated dose (MTD) at 14 days in data set [2] came to 30 mg/kg. In the data set with Rats F344, this compound had a CAR value of 46.5% and an EF of 0%.

The values are drawn from patent US12459931B2, “Benzothiophene derivative regulator, preparation method therefor and use thereof” (Shanghai Hansoh Biomedical Co., Ltd., priority 2019, dated 2025).
